This data set addresses ATP-dependent translocase ABCB1 (Homo sapiens, UniProt P08183). Description: TP_TRANSPORTER: Western in vivo human. The format is functional, organism-based.

Chain of ATP-dependent translocase ABCB1 (P08183 whole entry): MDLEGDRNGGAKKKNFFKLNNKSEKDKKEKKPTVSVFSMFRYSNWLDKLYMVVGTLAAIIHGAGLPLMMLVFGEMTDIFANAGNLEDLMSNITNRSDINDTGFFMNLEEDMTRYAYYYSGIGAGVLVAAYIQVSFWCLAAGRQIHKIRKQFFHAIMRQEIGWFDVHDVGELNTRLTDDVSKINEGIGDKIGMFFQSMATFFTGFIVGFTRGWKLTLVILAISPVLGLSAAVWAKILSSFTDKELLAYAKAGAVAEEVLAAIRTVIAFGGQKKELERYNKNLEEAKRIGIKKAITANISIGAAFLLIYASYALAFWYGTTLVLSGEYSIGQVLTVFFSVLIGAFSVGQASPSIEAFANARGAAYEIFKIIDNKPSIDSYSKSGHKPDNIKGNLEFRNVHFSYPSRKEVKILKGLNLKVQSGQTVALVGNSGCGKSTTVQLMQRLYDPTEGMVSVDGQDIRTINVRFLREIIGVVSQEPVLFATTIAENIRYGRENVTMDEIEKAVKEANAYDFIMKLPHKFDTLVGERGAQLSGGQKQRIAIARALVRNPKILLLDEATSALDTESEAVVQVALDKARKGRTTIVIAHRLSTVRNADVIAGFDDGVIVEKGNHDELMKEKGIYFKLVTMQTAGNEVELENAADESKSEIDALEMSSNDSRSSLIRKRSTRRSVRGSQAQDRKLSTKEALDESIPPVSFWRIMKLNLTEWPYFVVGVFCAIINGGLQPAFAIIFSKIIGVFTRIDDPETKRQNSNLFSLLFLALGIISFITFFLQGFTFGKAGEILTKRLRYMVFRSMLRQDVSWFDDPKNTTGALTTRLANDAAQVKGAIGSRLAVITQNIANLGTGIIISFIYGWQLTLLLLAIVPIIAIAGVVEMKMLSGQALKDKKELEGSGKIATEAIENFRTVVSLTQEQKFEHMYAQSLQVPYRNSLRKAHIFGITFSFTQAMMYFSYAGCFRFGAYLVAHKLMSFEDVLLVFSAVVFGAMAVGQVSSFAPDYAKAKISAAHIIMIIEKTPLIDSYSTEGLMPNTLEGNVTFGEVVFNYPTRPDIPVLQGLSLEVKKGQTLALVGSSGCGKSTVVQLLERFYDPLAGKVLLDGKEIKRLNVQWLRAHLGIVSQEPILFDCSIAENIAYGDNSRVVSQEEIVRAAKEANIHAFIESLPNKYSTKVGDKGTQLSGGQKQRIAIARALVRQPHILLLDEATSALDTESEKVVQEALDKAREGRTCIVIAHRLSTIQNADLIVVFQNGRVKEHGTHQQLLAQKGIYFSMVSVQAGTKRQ

In the case of ST. JOHN'S WORT, the Activity result is “inducer [+]”.

The values are drawn from ChEMBL document CHEMBL2073818, “St John's Wort induces intestinal P-glycoprotein/MDR1 and intestinal and hepatic CYP3A4” (Clin Pharmacol Ther, 2000).
